The test system of one data set is BALB/3T3 cells. Kind of data set: Toxicity towards normal fibroblasts, SRB assay. The data set is classed as cell-based. The conditions noted are these: 72 h exposure, mean ± SD, n.a = no activity in concentration of 5, 25, 125, 625 μM. The procedure:
(§1) Human biphenotypic B myelomonocytic leukemia MV4-11, human colon cancer LoVo cell line and normal mouse fibroblast BALB/3T3 cells were obtained from American Type Culture Collection (Rockville, Maryland, USA), human lung carcinoma A549 cells were obtained from European Collection of Authenticated Cell Cultures (UK). All the cell lines are being maintained at the Hirszfeld Institute of Immunology and Experimental Therapy, PAS, Wroclaw, Poland and were cultured according the procedure described before.
(§2) Cell lines were cultured according to the protocol described before. MV4-11 cells were cultured in RPMI 1640 medium (Gibco, UK) with 1.0 mM sodium pyruvate, and 10% fetal bovine serum (FBS) (all from Sigma-Aldrich, Germany). A549, LoVo and LoVo/DX cells were cultured in RPMI 1640 + Opti-MEM (1:1) (both from Gibco, UK) supplemented with 5% fetal bovine serum, 1.0 mM sodium pyruvate (LoVo and LoVo/DX cells) (all from Sigma Aldrich Germany) and 0.1 μg/mL doxorubicin chloride (Accord) (only LoVo/DX cells). BALB/3T3 cells in Dulbecco medium (IIET, Poland) supplemented with 10% fetal bovine serum (Sigma-Aldrich, Germany). All culture media were supplemented with 2 mM L-glutamine (Sigma-Aldrich, Germany), 100 units/mL penicillin, and 100 µg/mL streptomycin (both from Polfa Tarchomin S.A., Poland). All cell lines were grown at 37 °C with 5% CO2 humidified atmosphere.
(§3) The solutions of the compounds (50 mM) were prepared by dissolving the substances in DMSO (Sigma Aldrich, Germany). Then the tested compounds were diluted in culture medium to reach the final concentrations of 625, 125, 25 and 5 μM. Before adding of the tested compounds (24 h prior), the cells were plated in 96-well plates (Sarstedt, Germany) at a density of 1 × 10^4 or 0.5 × 10^4 (A549) cells per well. The assay was performed after 72 h of exposure to 625, 125, 25 and 5 μM of the tested agents. The in vitro cytotoxic effect of all agents was examined using the MTT (MV4-11) or SRB assay, described previously. The results were calculated as an IC50 (inhibitory concentration 50%) the concentration of tested agent, which is cytotoxic for 50% of the cancer cells. Each compound in each concentration was tested in triplicate in a single experiment, which was repeated 3–5 times.

The subject of data set [1] is caspase-3/7 in MV4-11 cells. Kind of data set: Caspase-3/7 activity determination (Ac-DEVD-ACC substrate). The data set is classed as cell-based, human. The conditions noted are these: MV4-11, 75 µM, 72 h. The procedure: Caspase-3/7 activity determination was performed according to the protocol previously described. The MV4-11 cells were seeded at the density of 1 × 10^5 cells/mL of culture medium on 24-well plates (Sarstedt, Germany) to the final volume of 2 mL. The cells were exposed to the test compounds at concentrations 75 μM or campthothecin (0.05 μg/mL) as a positive control, for 72 h. After 72 h of the incubation, the cells were collected and centrifuged (5 min., 4 °C, 250×g). Cells were suspended in 50 µL of ice-cold lysis buffer (50 mM HEPES, 10% (w/v) sucrose, 150 mM NaCl, 2 mM EDTA, 1% (v/v) Triton X-100, pH 7.3, IIET, Poland) and incubated 30 min. at 4 °C. After the incubation, 40 µL of each sample was transferred to a white, 96-well plate (Corning, USA) containing 160 µL of the reaction buffer (20 mM HEPES, 10% sucrose, 100 mM NaCl, 1 mM EDTA, 10 mM DTT, 0.02% Trition X-100, pH 7.3) (IIET, Wroclaw, Poland) with 9 µM Ac-DEVD-ACC fluorogenic substrate (λex = 360 nm, λem = 460 nm). The fluorescence increase correlated with the caspase-3/7 level was continuously recorded at 37 °C for 120 min using a Biotek Synergy H4 (Biokom, Warsaw, Poland). Compounds were tested in duplicates in single experiment and each experiment was repeated at least three times independently. Results were normalized to the number of cells in each well and are reported as mean relative caspase-3/7 activity compared to untreated control sample ± SD.

In another data set the test system is A549 cells. The data set can be described thus: Antiproliferative activity, SRB assay. The conditions noted are these: for IC50: 72 h exposure, SRB, mean ± SD, n.a = no activity in concentration of 5, 25, 125, 625 μM; for Selectivity index SI, A549: SI = IC50 BALB/3T3 / IC50 A549. It counts as cell-based, human. The procedure:
as §1, §2, §3
Background: The SRB assay estimates cell density from bound dye.

For a further data set, the system named is LoVo cells. Kind of data set: Antiproliferative activity, SRB assay. To be noted: for IC50: 72 h exposure, SRB, mean ± SD, n.a = no activity in concentration of 5, 25, 125, 625 μM; for Selectivity index SI, LoVo: SI = IC50 BALB/3T3 / IC50 LoVo. It counts as cell-based, human. The procedure:
as §1, §2, §3

A further data set has as its system rats. Further details: method as in PMID 20141879. To be noted: cited from earlier work.
A further data set has as its system albino mice. Details: method as in PMID 20141879. To be noted: cited from earlier work.
Where [2] appears, read: BALB/3T3, normal mouse fibroblasts.

The term IC50 denotes the concentration needed to halve the response being measured.

For `C=CC(C)(CCCC(C)CCCC(C)CCCC(C)C)CC(=O)O` (stereo not drawn) [compound 3, 3,7,11,15-tetramethyl-3-vinylhexadecanoic acid], the IC50 in the data set with BALB/3T3 cells (setting [2]) was determined as 145 ± 48 µM; in the data set on A549 cells (Homo sapiens, A549) it was 49.5 ± 2.9 µM; in the data set with LoVo cells (Homo sapiens, LoVo), 59.5 ± 1.1 µM. Besides, in data set [1], the “Increase of caspase-3/7 activity compared to the control” value is on record as 3 times. In the data set with A549 cells, the “Selectivity index SI, A549” value stood at 2.93. The “Selectivity index SI, LoVo” value with LoVo cells turned out to be 2.44.
Consider `CC(C)CCCC(C)CCCC(C)CCC[C@]1(C)CC(=O)O[C@@H]1CBr` (stereo in doubt) [compound 4, trans-5-Bromomethyl-4-methyl-4-(4′,8′,12′-trimethyltridecyl)dihydrofuran-2-one], for which the IC50 in the data set on BALB/3T3 cells (setting [2]) stood at 348 ± 27.6 µM.
Consider “3,7,11,15-tetramethylhexadec-2-en-1-ol [Phytol (1), reference compound]”, for which the “Lethal dose (LD50)” value in the data set on rats is greater than 10000 mg/kg; in the data set with albino mice, “above 5 g/kg”. Further, the IC50 is 64.5 ± 12.9 µM in the data set on BALB/3T3 cells (normal mouse fibroblasts), 64.1 ± 5.2 µM in the data set on A549 cells and 255 ± 46.5 µM in the data set with LoVo cells. Further, the “Selectivity index SI, A549” value in the data set on A549 cells is 1.01. For the same molecule, in the data set with LoVo cells, the “Selectivity index SI, LoVo” value is recorded as 0.25.
`CC(C)CCCC(C)CCCC(C)CCC[C@]1(C)CC(=O)O[C@H]1CBr` (stereo in doubt) [compound 5, cis-5-Bromomethyl-4-methyl-4-(4′,8′,12′-trimethyltridecyl)dihydrofuran-2-one] came in with an IC50 in the data set with BALB/3T3 cells (setting [2]) of 424 ± 140 µM.
As for `CC(C)CCCC(C)CCCC(C)CCC[C@]1(C)CC(=O)O[C@@H]1CCl` (stereo in doubt) [compound 6, trans-5-Chloromethyl-4-methyl-4-(4′,8′,12′-trimethyltridecyl)dihydrofuran-2-one], the IC50 in the data set with BALB/3T3 cells (setting [2]) was found to be 273 ± 16.4 µM; in the data set on A549 cells (Homo sapiens, A549), 378 ± 32.8 µM; in the data set with LoVo cells (Homo sapiens, LoVo), 293 ± 33.1 µM. Besides, the “Increase of caspase-3/7 activity compared to the control” value in data set [1] is listed as “about 1.5 times”. In the data set on A549 cells, the “Selectivity index SI, A549” value amounted to 0.72. Moreover, in the data set with LoVo cells, the “Selectivity index SI, LoVo” value was found to be 0.93.

These data come from publication PMC7896091, “Synthesis of novel phytol-derived γ-butyrolactones and evaluation of their biological activity” (Scientific Reports, 2021).
